tested on: HBV; test: HBV inhibition assay in HepG2.2.15 cells (extracellular HBV DNA by qPCR); format: cell-based; settings: Hepatitis B virus, 120 h, extracellular HBV DNA in culture supernatant by qPCR, five days after compound treatment
Source text: Example 19: HBV Inhibition Assays
Cell Line and Culture Conditions:
HepG2.2.15 is a stably-transfected cell line containing the HBV genome. It is derived from the hepatoblastoma cell line Hep G2 (American Type Culture Collection, ATCC® HB-8065™) by the published procedures described in reference: MA Selles et al. Proc. Natl. Acad. Sci. USA 1987, 84, 1005-1009. The cell line was maintained in Dulbecco's modified Eagle's medium and nutrient mixture F-12 (DMEM/F-12, Gibco, Cat. #: 11320-033) supplemented with 10% fetal bovine serum (Gibco, Cat. #: 10099-141), 100 U/mL penicillin, 100 μg/mL streptomycin (Gibco, Cat. #: 15140-122), and 0.3 mg/mL of G418 Sulfate (Gibco, Cat. #: 10131-027).
Anti-HBV Activity In Vitro:
HepG2.2.15 cells were seeded into 96-well plates at a density of 3×10^4 cells per well in culture media of 100 μL DMEM/F-12 supplemented with 2.5% fetal bovine serum, 100 U/mL penicillin, 100 μg/mL streptomycin and cultured overnight at 37° C. The test compounds were serially half-log diluted in DMSO, then diluted 100 times in culture media. 100 μL culture media containing diluted compounds were added into the plates to reach 0.5% final concentration of DMSO in every well. Five days after compound treatment, culture supernatant was collected for further analysis.
For quantitative PCR detection of extracellular HBV DNA, culture supernatant was processed by 500 μg/mL Proteinase K (Sigma, Cat. #: P2308) digestion at 50° C. for 1 hour. After heat inactivation of the enzyme at 95° C. for 15 minutes, the samples were subjected to HBV DNA quantification by qPCR. The effective compound concentration at which HBV replication was inhibited by 50% (EC50) was determined.

Row | Structure (SMILES) | EC50 [nM]
1 | O=C(Nc1cc(F)c(F)c(F)c1)C1CCn2ncc(N3CCCC3=O)c2C1 (centres unmarked) [Example 1, 3-(2-oxopyrrolidin-1-yl)-N-(3,4,5-trifluorophenyl)-4,5,6,7-tetrahydropyrazolo[1,5-a]pyridine-5-carboxamide] | 370
2 | CC1(C)CN(c2cnn3c2CC(C(=O)Nc2cc(F)c(F)c(F)c2)CC3)C(=O)O1 (centres unmarked) [Example 2, 3-(5,5-dimethyl-2-oxo-oxazolidin-3-yl)-N-(3,4,5-trifluorophenyl)-4,5,6,7-tetrahydropyrazolo[1,5-a]pyridine-5-carboxamide] | 300
3 | O=C(Nc1cc(F)c(F)c(F)c1)C1CCn2ncc(-c3ccc(F)cc3F)c2C1 (centres unmarked) [Example 3, 3-(2,4-difluorophenyl)-N-(3,4,5-trifluorophenyl)-4,5,6,7-tetrahydropyrazolo[1,5-a]pyridine-5-carboxamide] | 160
4 | O=C(Nc1cc(F)c(F)c(F)c1)C1CCn2ncc(C3CCCC3)c2C1 (centres unmarked) [Example 4, 3-cyclopentyl-N-(3,4,5-trifluorophenyl)-4,5,6,7-tetrahydropyrazolo[1,5-a]pyridine-5-carboxamide] | 150
5 | O=C(Nc1cc(F)c(F)c(F)c1)C1CCn2ncc(N3CCCS3(=O)=O)c2C1 (centres unmarked) [Example 5, 3-(1,1-dioxo-1,2-thiazolidin-2-yl)-N-(3,4,5-trifluorophenyl)-4,5,6,7-tetrahydropyrazolo[1,5-a]pyridine-5-carboxamide] | 39
6 | O=C(Nc1cc(F)c(F)c(F)c1)C1CCn2ncc(N3CCN(Cc4ccccc4)S3(=O)=O)c2C1 (centres unmarked) [Example 6, 3-(5-benzyl-1,1-dioxo-1,2,5-thiadiazolidin-2-yl)-N-(3,4,5-trifluorophenyl)-4,5,6,7-tetrahydropyrazolo[1,5-a]pyridine-5-carboxamide] | 240
7 | O=C(Nc1cc(F)c(F)c(F)c1)C1CCn2ncc(N3CCNS3(=O)=O)c2C1 (centres unmarked) [Example 7, 3-(1,1-dioxo-1,2,5-thiadiazolidin-2-yl)-N-(3,4,5-trifluorophenyl)-4,5,6,7-tetrahydropyrazolo[1,5-a]pyridine-5-carboxamide] | 110
8 | N#CC1CC(=O)N(c2cnn3c2CC(C(=O)Nc2cc(F)c(F)c(F)c2)CC3)C1 (centres unmarked) [Example 8, 3-(4-cyano-2-oxo-pyrrolidin-1-yl)-N-(3,4,5-trifluorophenyl)-4,5,6,7-tetrahydropyrazolo[1,5-a]pyridine-5-carboxamide] | 190
9 | O=C(Nc1cc(F)c(F)c(F)c1)C1CCn2ncc(N3CCOCC3=O)c2C1 (centres unmarked) [Example 9, 3-(3-oxomorpholin-4-yl)-N-(3,4,5-trifluorophenyl)-4,5,6,7-tetrahydropyrazolo[1,5-a]pyridine-5-carboxamide] | 840
10 | Cc1noc(C2CC(=O)N(c3cnn4c3CC(C(=O)Nc3cc(F)c(F)c(F)c3)CC4)C2)n1 (centres unmarked) [Example 10, 3-[4-(3-methyl-1,2,4-oxadiazol-5-yl)-2-oxo-pyrrolidin-1-yl]-N-(3,4,5-trifluorophenyl)-4,5,6,7-tetrahydropyrazolo[1,5-a]pyridine-5-carboxamide] | 330
11 | O=C(Nc1ccsc1)C1CCn2ncc(-c3ccc(F)cc3F)c2C1 (centres unmarked) [Example 11, 3-(2,4-difluorophenyl)-N-(3-thienyl)-4,5,6,7-tetrahydropyrazolo[1,5-a]pyridine-5-carboxamide] | 590
12 | O=C(Nc1ccc(F)c(C(F)(F)F)c1)C1CCn2ncc(-c3ccc(F)cc3F)c2C1 (centres unmarked) [Example 12, 3-(2,4-difluorophenyl)-N-[4-fluoro-3-(trifluoromethyl)phenyl]-4,5,6,7-tetrahydropyrazolo[1,5-a]pyridine-5-carboxamide] | 870
13 | N#Cc1cc(NC(=O)C2CCn3ncc(-c4ccc(F)cc4F)c3C2)ccc1F (centres unmarked) [Example 13, N-(3-cyano-4-fluoro-phenyl)-3-(2,4-difluorophenyl)-4,5,6,7-tetrahydropyrazolo[1,5-a]pyridine-5-carboxamide] | 210
14 | Cc1cc(NC(=O)C2CCn3ncc(-c4ccc(F)cc4F)c3C2)ccc1F (centres unmarked) [Example 14, 3-(2,4-difluorophenyl)-N-(4-fluoro-3-methyl-phenyl)-4,5,7-tetrahydropyrazolo[1,5-a]pyridine-5-carboxamide] | 89
15 | O=C(Nc1cc(F)nc(F)c1)C1CCn2ncc(-c3ccc(F)cc3F)c2C1 (centres unmarked) [Example 15, 3-(2,4-difluorophenyl)-N-(2,6-difluoro-4-pyridyl)-4,5,6,7-tetrahydropyrazolo[1,5-a]pyridine-5-carboxamide] | 450
16 | O=C(Nc1ccnc(F)c1)C1CCn2ncc(-c3ccc(F)cc3F)c2C1 (centres unmarked) [Example 16, 3-(2,4-difluorophenyl)-N-(2-fluoro-4-pyridyl)-4,5,6,7-tetrahydropyrazolo[1,5-a]pyridine-5-carboxamide] | 350
17 | Cc1nc(C2CC(=O)N(c3cnn4c3CC(C(=O)Nc3cc(F)c(F)c(F)c3)CC4)C2)no1 (centres unmarked) [Example 18, 3-[4-(5-methyl-1,2,4-oxadiazol-3-yl)-2-oxo-pyrrolidin-1-yl]-N-(3,4,5-trifluorophenyl)-4,5,6,7-tetrahydropyrazolo[1,5-a]pyridine-5-carboxamide] | 390
